One assay deals with T1, tankyrase 1 (TNKS 1) (Homo sapiens, UniProt O95271).
T1 construct: 1,024-1,327aa; made in house; host or cells: cell-free protein synthesis system
The experiment in a line: Tankyrase inhibitory activity test (ELISA, self-polyADP ribosylation), tankyrase 1. The assay is classed as biochemical. The conditions noted are these: ELISA, self-polyADP ribosylation; class symbols; read-out: TNKS1 (inhibitory activity against tankyrase 1, IC50 value). The gist of the method: (§1)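 IC50 was fitted to residual self-polyADP-ribosylation activity, detected by HRP-streptavidin chemiluminescence. Plate-bound Flag fusions (TNKS1 1,024-1,327aa SAM+PARP; TNKS2 613-1,116aa ANK5+SAM+PARP, cell-free synthesized) saw compound for 10 min at room temperature in 50 mM Tris-HCl pH 8.0, 4 mM MgCl2, 0.2 mM DTT. Reaction with 225 μM NAD/25 μM 6-biotin-17-NAD solution ran 45 min at 30 °C.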

The target of the next assay is T2, tankyrase 2 (TNKS 2) (Homo sapiens, UniProt Q9H2K2).
T2 construct: 613-1, 116aa; made in house; host or cells: cell-free protein synthesis system
T2 sequence (Q9H2K2 613-1166): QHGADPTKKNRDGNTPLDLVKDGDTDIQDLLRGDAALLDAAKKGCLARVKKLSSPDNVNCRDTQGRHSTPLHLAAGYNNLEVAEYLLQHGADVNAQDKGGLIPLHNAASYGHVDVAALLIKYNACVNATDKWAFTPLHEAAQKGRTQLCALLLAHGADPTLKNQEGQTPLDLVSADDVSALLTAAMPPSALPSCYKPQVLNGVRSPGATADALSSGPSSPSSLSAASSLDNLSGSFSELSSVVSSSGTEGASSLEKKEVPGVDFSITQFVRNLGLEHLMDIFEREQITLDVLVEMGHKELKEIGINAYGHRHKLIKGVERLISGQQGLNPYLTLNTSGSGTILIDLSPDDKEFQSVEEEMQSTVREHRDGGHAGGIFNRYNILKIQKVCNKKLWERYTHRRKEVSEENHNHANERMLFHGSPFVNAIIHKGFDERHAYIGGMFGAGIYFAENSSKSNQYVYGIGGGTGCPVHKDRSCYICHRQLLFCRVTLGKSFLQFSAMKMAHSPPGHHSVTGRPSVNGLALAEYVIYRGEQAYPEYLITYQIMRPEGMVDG
Nature of the assay: Tankyrase inhibitory activity test (ELISA, self-polyADP ribosylation), tankyrase 2. The assay is classed as biochemical. The conditions noted are these: ELISA, self-polyADP ribosylation; class symbols; read-out: TNKS2 (inhibitory activity against tankyrase 2, IC50 value). An outline of the steps:
as §1
(In general: An ELISA detects its analyte on a solid surface through an enzyme-linked reagent.)

Assay [1] deals with human colorectal cancer cell line, COLO-320DM. Nature of the assay: Cell proliferation inhibitory activity test (Celltiter-Glo Luminescent Cell Viability Assay). Format: cell-based. The conditions noted are these: COLO-320DM cells, 96 hours, class symbols, read-out: COLO-320 DM (cell proliferation inhibitory activity, GI50 value). The gist of the method: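 GI50 is taken as the concentration halving cell growth versus 1% DMSO control, measured by ATP luminescence. Compound exposure lasted 96 h at 37° C. under 5% CO2, after overnight seeding in RPMI-1640 with 10% FBS and 2 mM glutamine.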
A general note: Cellular ATP, detected with luciferase, serves as a proxy for viable cell number.

Each structure is given as a SMILES string. Some results are limits rather than exact numbers.

T1 sequence (O95271 1024-1327): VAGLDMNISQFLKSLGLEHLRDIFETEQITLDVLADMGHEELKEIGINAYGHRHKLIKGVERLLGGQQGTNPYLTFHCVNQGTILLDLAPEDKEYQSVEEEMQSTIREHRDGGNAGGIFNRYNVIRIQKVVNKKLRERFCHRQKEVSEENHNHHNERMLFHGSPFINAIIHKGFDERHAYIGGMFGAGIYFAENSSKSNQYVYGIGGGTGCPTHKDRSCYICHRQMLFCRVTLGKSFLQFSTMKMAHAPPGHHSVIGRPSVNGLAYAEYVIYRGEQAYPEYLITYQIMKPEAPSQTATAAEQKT

With `CN1CCCc2c1nc(N1CCC3(CC1)C(=O)N(C)c1cc(OCCNS(=O)(=O)N(C)C)cc(F)c13)[nH]c2=O` [Example 428, 6-[2-(N,N-dimethyl-sulfamoyl)amino-ethoxy]-4-fluoro-1-methyl-1′-(8-methyl-4-oxo-3,4,5,6,7,8-hexahydro-pyrido[2,3-d]pyrimi-din-2-yl)spiro [indoline-3,4′-piperidin]-2(1 H)-one], the IC50 at tankyrase 1 (TNKS 1) and at tankyrase 2 (TNKS 2) was less than 20 nM throughout. The GI50 in assay [1] was 100 to 600 nM.

As to `CN1CCCc2c1nc(N1CCC3(CC1)C(=O)N(CCO)c1cc(OCC#N)cc(F)c13)[nH]c2=O` [Example 429, {[4-fluoro-1-(2-hydroxy-ethyl)-1′-(8-methyl-4-oxo-3,4,5,6,7,8-hexahydro-pyrido[2,3-d]pyrimidin-2-yl)-2-oxospiro[indoline-3,4′-piperidin]-6-yl]oxy} acetonitrile], the IC50 on tankyrase 1 (TNKS 1) and at tankyrase 2 (TNKS 2) was less than 20 nM in each case. In addition, the GI50 in assay [1] was 100 to 600 nM.

With `CN1CCCc2c1nc(N1CCC3(CC1)C(=O)N(CC(=N)N)c1cc(F)cc(F)c13)[nH]c2=O` [Example 430, [4,6-difluoro-1′-(8-methyl-4-oxo-3,4,5,6,7,8-hexahydropyrido[2,3-d]pyrimidin-2-yl)-2-oxospiro[indoline-3,4′-piperidine]-1(2H)-yl]ethanimidamide], the IC50 on tankyrase 1 (TNKS 1) and at tankyrase 2 (TNKS 2) was less than 20 nM throughout. Further, the GI50 in assay [1] lay in the range of 600 to 1000 nM.

For the compound `CN1CCCc2c1nc(N1CCC3(CC1)C(=O)N(C)c1cc(C(=O)O)cc(F)c13)[nH]c2=O` [Example 431, 4-fluoro-1-methyl-1′-(8-methyl-4-oxo-3,4,5,6,7,8-hexahydro-pyrido[2,3-d]primi-din-2-yl)-2-oxospiro[indoline-3,4′-piperidine]-6-carboxylic acid], the IC50 at tankyrase 1 (TNKS 1) and at tankyrase 2 (TNKS 2) was less than 20 nM in each case. Besides, the GI50 in assay [1] lay within 600 to 1000 nM.

As for `CN1CCCc2c1nc(N1CCC3(CC1)C(=O)N(C)c1cc(OCCNS(C)(=O)=O)cc(F)c13)[nH]c2=O` [Example 432, N-(2-{[4-fluoro-1-methyl-1′-(8-methyl-4-oxo-3,4,5,6,7,8-hexahy-dropyrido[2,3-d]py-rimidin-2-yl)-2-oxospiro [indoline-3,4′-piperi-din]-6-yl]oxy}ethyl) methanesulfonamide], the IC50 at tankyrase 1 (TNKS 1) and on tankyrase 2 (TNKS 2) was 20 to 200 nM in each case. For the same compound, the GI50 in assay [1] lay in the range of 100 to 600 nM.

As for `CN1CCCc2c1nc(N1CCC3(CC1)OC(=O)c1cc(N4CCN(C(C)(C)C)CC4)cc(F)c13)[nH]c2=O` [Example 434, 6-(4-tert-butylpipera-zin-1-yl)-4-fluoro-1′-(4-hydroxy-8-methyl-6,7-dihydro-5H-pyrido [2,3-d]pyrimidin-2-yl) spiro[2,3-benzofuran-3,4′-piperidine]-1-one], the half-maximal inhibitory concentration (IC50) on tankyrase 1 (TNKS 1) and on tankyrase 2 (TNKS 2) was less than 20 nM each time. The GI50 in assay [1] was 600 to 1000 nM.

`N#CCOc1cc(F)c2c(c1)N(CC(F)(F)F)C(=O)C21CCN(c2nc3c(c(=O)[nH]2)CCCN3)CC1` [Example 435, 2-[4-fluoro-2-oxo-1′-(4-oxo-3,4,5,6,7-hex-ahydropyrido[2,3-d]pyrimidin-2-yl)-1-(2,2,2-trifluoroethyl)spiro [indole-3,4′-piperidine]-6-yl]oxyacetonitrile]: the IC50 on tankyrase 1 (TNKS 1) and on tankyrase 2 (TNKS 2) was less than 20 nM throughout. In addition, the GI50 in assay [1] fell in the range of 100 to 600 nM.

As to `CN1CCCc2c1nc(N1CCC3(CC1)C(=O)N(C)c1c(OCCNC(C)(C)C)ccc(F)c13)[nH]c2=O` [Example 437, 7-[2-(tert-butylamino)ethoxy]-4-fluoro-1′-(4-hydroxy-8-methyl-6,7-dihydro-5H-pyrido [2,3-d]pyrimidin-2-yl)-1-methylspiro[indole-3,4′-piperidine]-2-one], the IC50 on tankyrase 1 (TNKS 1) and at tankyrase 2 (TNKS 2) was 20 to 200 nM each time. In assay [1], the GI50 lay in the range of 100 to 600 nM.

Values taken from US11414429B2, “Compound or pharmaceutically acceptable salt thereof” (RIKEN, priority 2016, dated 2022).
